# Data published in US20160159816A1, “SUBSTITUTED THIENOPYRIMIDINES AND PHARMACEUTICAL USE THEREOF” (BAYER PHARMA AKTIENGESELLSCHAFT, priority 2013, published 2016).
# Target: T1, human full-length MKNK1 (Homo sapiens, UniProt Q9BUB5, T385D)
# T1 construct: GST (N); purchased Carna Biosciences 02-145; host or cells: insect cells, baculovirus expression system
# Assay: MKNK1 kinase high ATP assay (TR-FRET)
# Format: biochemical
# Conditions: high ATP (2 mM), after preincubation with MKNK1; compounds of the present invention (Table 1a)
# Description: MKNK1-inhibitory activity at high ATP of compounds of the present invention after their preincubation with MKNK1 was quantified employing the TR-FRET-based MKNK1 high ATP assay as described in the following paragraphs.
# A recombinant fusion protein of Glutathione-S-Transferase (GST, N-terminally) and human full-length MKNK1 (amino acids 1-424 and T344D of accession number BAA 19885.1), expressed in insect cells using baculovirus expression system and purified via glutathione sepharose affinity chromatography, was purchased from Carna Biosciences (product no 02-145) and used as enzyme. As substrate for the kinase reaction the biotinylated peptide biotin-Ahx-IKKRKLTRRKSLKG (C-terminus in amide form) was used, which can be purchased e.g. from the company Biosyntan (Berlin-Buch, Germany).
# For the assay 50 nL of a 100 fold concentrated solution of the test compound in DMSO was pipetted into a black low volume 384 well microtiter plate (Greiner Bio-One, Frickenhausen, Germany), 2 μL of a solution of MKNK1 in aqueous assay buffer [50 mM HEPES pH 7.5, 5 mM MgCl2, 1.0 mM dithiothreitol, 0.005% (v/v) Nonidet-P40 (Sigma)] was added and the mixture was incubated for 15 min at 22° C. to allow pre-binding of the test compounds to the enzyme before the start of the kinase reaction. Then the kinase reaction was started by the addition of 3 μL of a solution of adenosine-tri-phosphate (ATP, 3.3 mM=>final conc. in the 5 μL assay volume is 2 mM) and substrate (0.1 μM=>final conc. in the 5 μL assay volume is 0.06 μM) in assay buffer and the resulting mixture was incubated for a reaction time of 30 min at 22° C. The concentration of MKNK1 was adjusted depending of the activity of the enzyme lot and was chosen appropriate to have the assay in the linear range, typical concentrations were in the range of 0.003 μg/mL. The reaction was stopped by the addition of 5 μL of a solution of TR-FRET detection reagents (5 nM streptavidine-XL665 [Cisbio Bioassays, Codolet, France] and 1 nM anti-ribosomal protein […] (pSer236)-antibody from Invitrogen [#44921G] and 1 nM LANCE EU-W1024 labeled ProteinG [Perkin-Elmer, product no. AD0071]) in an aqueous EDTA-solution (100 mM EDTA, 0.1% (w/v) bovine serum albumin in 50 mM HEPES pH 7.5).
# The resulting mixture was incubated for 1 h at 22° C. to allow the formation of complex between the phosphorylated biotinylated peptide and the detection reagents. Subsequently the amount of phosphorylated substrate was evaluated by measurement of the resonance energy transfer from the Eu-chelate to the streptavidine-XL. Therefore, the fluorescence emissions at 620 nm and 665 nm after excitation at 350 nm were measured in a TR-FRET reader, e.g. a Rubystar (BMG Labtechnologies, Offenburg, Germany) or a Viewlux (Perkin-Elmer). The ratio of the emissions at 665 nm and at […] was taken as the measure for the amount of phosphorylated substrate. The data were normalised (enzyme reaction without inhibitor=0% inhibition, all other assay components but no enzyme=100% inhibition). […] Table 1a lists MKNK1 high ATP IC50 values of some compounds of the present invention.
# T1 sequence (Q9BUB5 1-424 isoform Q9BUB5-2 T344D): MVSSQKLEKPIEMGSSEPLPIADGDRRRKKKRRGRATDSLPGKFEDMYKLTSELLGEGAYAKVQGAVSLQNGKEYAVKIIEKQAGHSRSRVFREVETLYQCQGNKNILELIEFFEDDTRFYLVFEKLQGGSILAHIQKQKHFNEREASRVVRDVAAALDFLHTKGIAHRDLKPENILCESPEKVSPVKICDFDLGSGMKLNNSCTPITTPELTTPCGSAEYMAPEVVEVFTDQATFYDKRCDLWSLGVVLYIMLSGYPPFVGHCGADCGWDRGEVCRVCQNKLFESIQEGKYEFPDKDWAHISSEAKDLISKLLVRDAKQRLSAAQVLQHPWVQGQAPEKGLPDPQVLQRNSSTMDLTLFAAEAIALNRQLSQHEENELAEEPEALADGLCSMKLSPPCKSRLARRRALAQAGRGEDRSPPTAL
row,IC50,Compound
1,89.4 nM,"COCC1(OC)CCc2c(sc3ncnc(Nc4cc5cn[nH]c5cc4F)c23)C1 (racemic) [Example 30, (RS)—N-(6-Fluoro-1H-indazol-5-yl)-7-methoxy-7-(methoxymethyl)-5,6,7,8-tetrahydro[1]benzothieno[2,3-d]pyrimidin-4-amine]"
2,149 nM,"COCC1(OC)CCc2c(sc3ncnc(Nc4cc5cn[nH]c5cc4Cl)c23)C1 (racemic) [Example 31, (RS)—N-(6-Chloro-1H-indazol-5-yl)-7-methoxy-7-(methoxymethyl)-5,6,7,8-tetrahydro[1]benzothieno[2,3-d]pyrimidin-4-amine]"
3,9.1 nM,"COCC1(OC)CCc2c(sc3ncnc(Nc4cc5cn[nH]c5cc4OC)c23)C1 (racemic) [Example 32, (RS)-7-Methoxy-N-(6-methoxy-1H-indazol-5-yl)-7-(methoxymethyl)-5,6,7,8-tetrahydro[1]benzothieno[2,3-d]pyrimidin-4-amine]"
4,220 nM,"CN(C)C1CCc2c(sc3ncnc(Nc4ccc5[nH]ncc5c4)c23)C1 (racemic) [Example 35, (RS)—N^4-(1H-Indazol-5-yl)-N^7,N^7-dimethyl-5,6,7,8-tetrahydro[1]benzothieno[2,3-d]pyrimidine-4,7-diamine]"
5,14.1 nM,"COc1cc2[nH]ncc2cc1Nc1ncnc2sc3c(c12)CCC(N(C)C)C3 (racemic) [Example 36, (RS)—N^4-(6-Methoxy-1H-indazol-5-yl)-N^7,N^7-dimethyl-5,6,7,8-tetrahydro[1]benzothieno[2,3-d]pyrimidine-4,7-diamine]"
6,47.8 nM,"COCC1(OC)CCc2c(sc3ncnc(Nc4ccc5[nH]ncc5c4)c23)C1 (racemic) [Example 37, (7RS)—N-(1H-Indazol-5-yl)-7-methoxy-7-(methoxymethyl)-5,6,7,8-tetrahydro[1]benzothieno[2,3-d]pyrimidin-4-amine]"
7,16.9 nM,"OCc1cnnn1C[C@@H]1CCc2c(sc3ncnc(Nc4ccc5[nH]ncc5c4)c23)C1 (single isomer, unassigned) [Example 33, (1-{[(7R or 7S)-4-(1H-Indazol-5-ylamino)-5,6,7,8-tetrahydro[1]benzothieno[2,3-d]pyrimidin-7-yl]methyl}-1H-1,2,3-triazol-5-yl)methanol]"
8,20.5 nM,"OCc1cn(C[C@@H]2CCc3c(sc4ncnc(Nc5ccc6[nH]ncc6c5)c34)C2)nn1 (single isomer, unassigned) [Example 34, (1-{[(7R or 7S)-4-(1H-Indazol-5-ylamino)-5,6,7,8-tetrahydro[1]benzothieno[2,3-d]pyrimidin-7-yl]methyl}-1H-1,2,3-triazol-4-yl)methanol]"
9,106 nM,"COCC1(OC)CCc2c(sc3ncnc(Nc4ccc5[nH]ncc5c4)c23)C1 (single isomer, unassigned) [Example 38, (7R) or (7S) N-(1H-Indazol-5-yl)-7-methoxy-7-(methoxymethyl)-5,6,7,8-tetrahydro[1]benzothieno[2,3-d]pyrimidin-4-amine]"
10,69.3 nM,"COCC1(OC)CCc2c(sc3ncnc(Nc4ccc5[nH]ncc5c4)c23)C1 (single isomer, unassigned) [Example 39, (7S) or (7R) N-(1H-Indazol-5-yl)-7-methoxy-7-(methoxymethyl)-5,6,7,8-tetrahydro[1]benzothieno[2,3-d]pyrimidin-4-amine]"
11,487 nM,"COCC1(OC)CCc2c(sc3ncnc(Nc4cc5cn[nH]c5cc4C)c23)C1 (single isomer, unassigned) [Example 40, (7R) or (7S) 7-Methoxy-7-(methoxymethyl)-N-(6-methyl-1H-indazol-5-yl)-5,6,7,8-tetrahydro[1]benzothieno[2,3-d]pyrimidin-4-amine]"
12,371 nM,"COCC1(OC)CCc2c(sc3ncnc(Nc4cc5cn[nH]c5cc4C)c23)C1 (single isomer, unassigned) [Example 41, (7S) or (7R) 7-Methoxy-7-(methoxymethyl)-N-(6-methyl-1H-indazol-5-yl)-5,6,7,8-tetrahydro[1]benzothieno[2,3-d]pyrimidin-4-amine]"
13,10.1 nM,"COCC1(OC)CCc2c(sc3ncnc(Nc4cc5cn[nH]c5cc4OC)c23)C1 (single isomer, unassigned) [Example 42, (7R) or (7S) 7-Methoxy-N-(6-methoxy-1H-indazol-5-yl)-7-(methoxymethyl)-5,6,7,8-tetrahydro[1]benzothieno[2,3-d]pyrimidin-4-amine]"
14,12.5 nM,"COCC1(OC)CCc2c(sc3ncnc(Nc4cc5cn[nH]c5cc4OC)c23)C1 (single isomer, unassigned) [Example 43, (7S) or (7R) 7-Methoxy-N-(6-methoxy-1H-indazol-5-yl)-7-(methoxymethyl)-5,6,7,8-tetrahydro[1]benzothieno[2,3-d]pyrimidin-4-amine]"
15,74.3 nM,"COCC1(OC)CCc2c(sc3ncnc(Nc4cc5cn[nH]c5cc4F)c23)C1 (single isomer, unassigned) [Example 44, (7R) or (7S) N-(6-Fluoro-1H-indazol-5-yl)-7-methoxy-7-(methoxymethyl)-5,6,7,8-tetrahydro[1]benzothieno[2,3-d]pyrimidin-4-amine]"
16,89 nM,"COCC1(OC)CCc2c(sc3ncnc(Nc4cc5cn[nH]c5cc4F)c23)C1 (single isomer, unassigned) [Example 45, (7S) or (7R) N-(6-Fluoro-1H-indazol-5-yl)-7-methoxy-7-(methoxymethyl)-5,6,7,8-tetrahydro[1]benzothieno[2,3-d]pyrimidin-4-amine]"
17,89.2 nM,"COCC1(OC)CCc2c(sc3ncnc(Nc4cc5cn[nH]c5cc4Cl)c23)C1 (single isomer, unassigned) [Example 46, (7R) or (7S) N-(6-Chloro-1H-indazol-5-yl)-7-methoxy-7-(methoxymethyl)-5,6,7,8-tetrahydro[1]benzothieno[2,3-d]pyrimidin-4-amine]"
18,165 nM,"COCC1(OC)CCc2c(sc3ncnc(Nc4cc5cn[nH]c5cc4Cl)c23)C1 (single isomer, unassigned) [Example 47, (7S) or (7R) N-(6-Chloro-1H-indazol-5-yl)-7-methoxy-7-(methoxymethyl)-5,6,7,8-tetrahydro[1]benzothieno[2,3-d]pyrimidin-4-amine]"
19,13.5 nM,"COc1cc2[nH]ncc2cc1Nc1ncnc2sc3c(c12)CCCC3 [Example 2, N-(6-methoxy-1H-indazol-5-yl)-5,6,7,8-tetrahydro[1]benzothieno[2,3-d]pyrimidin-4-amine]"
20,18.5 nM,"c1nc(Nc2ccc3[nH]ncc3c2)c2c3c(sc2n1)CCCC3 [Example 3, N-(1H-Indazol-5-yl)-5,6,7,8-tetrahydro[1]benzothieno[2,3-d]pyrimidin-4-amine]"
21,4.8 nM,"COc1cc2[nH]ncc2cc1Nc1ncnc2sc3c(c12)CCC1(C3)OCCO1 [Example 24, N-(6-Methoxy-1H-indazol-5-yl)-5,8-dihydro-6H-spiro[1-benzothieno[2,3-d]pyrimidine-7,2′-[1,3]dioxolan]-4-amine]"
22,2.4 nM,"COc1cc2[nH]ncc2cc1Nc1ncnc2sc3c(c12)CC[C@](C)(C(=O)N(C)C)C3 [Example 48, (7S) 4-[(6-Methoxy-1H-indazol-5-yl)amino]-N,N,7-trimethyl-5,6,7,8-tetrahydro[1]benzothieno[2,3-d]pyrimidine-7-carboxamide]"
23,13.3 nM,"COc1cc2[nH]ncc2cc1Nc1ncnc2sc3c(c12)CC[C@@](C)(C(=O)N(C)C)C3 [Example 49, (7R) 4-[(6-Methoxy-1H-indazol-5-yl)amino]-N,N,7-trimethyl-5,6,7,8-tetrahydro[1]benzothieno[2,3-d]pyrimidine-7-carboxamide]"
24,19.6 nM,"CC[C@@]1(C(=O)N(C)C)CCc2c(sc3ncnc(Nc4cc5cn[nH]c5cc4OC)c23)C1 [Example 50, (7R) 7-Ethyl-4-[(6-methoxy-1H-indazol-5-yl)amino]-N,N-dimethyl-5,6,7,8-tetrahydro[1]benzothieno[2,3-d]pyrimidine-7-carboxamide]"
